In publication PMC10541198, “Specific quinone reductase 2 inhibitors reduce metabolic burden and reverse Alzheimer’s disease phenotype in mice” (The Journal of Clinical Investigation, 2023):
Where “and” joins values, the source holds several entries; their conditions need not be identical. Equal values may be shown once.

Columns and labels:
5xFAD mice [1] = assay: Delay fear conditioning in 5xFAD mice, YB-537 in drinking water; format: in vivo, mouse; design: Figure 8A, delay fear conditioning: unit not given here; conditions: for freezing to conditioned context (individual mice) / freezing to conditioned cue (individual mice): in % (unit assumed); for Figure 8A, delay fear conditioning: individual animals
Description: We next aimed to test the effect of QR2 inhibition in AD model mice using YB-537, taking advantage of its extremely high specificity, solubility, and lack of toxicity. First, we determined YB-537 pharmacokinetics (PK) and oral bioavailability and assessed any acute observable toxicity in mice. […] We therefore opted to chronically deliver YB-537 to AD-model mice via their drinking water, so they may freely ingest the inhibitor at 50 mg/kg, with minimal intervention or trauma, for 1 month. We chose 9-month-old 5xFAD ([27]) male and female mice in double-blind experiments, so that well-progressed symptoms and pathologies would be present, to mimic clinically relevant cases in human patients ([35]), as has been previously described in this mouse model. Other than an improvement in nest quality ([36]) over time seen in animals receiving YB-537 (starting at age 8 months and ending at age 9 months), no changes to general physical parameters or wellbeing were observed over the 1 month of YB-537 ingestion (Supplemental Figure 6, A–J). Animals received the treatment for a week, and, on week 2, behavioral experiments commenced, including Morris water maze (MWM) and novel object recognition (NOR). These were carried out in parallel, with half of the animals (including both sexes and treatments) undergoing 1 of the paradigms in week 2, and the other in week 3. […] Since learning in this paradigm was slow, and performance was poor even following 6 days of training (using 4 learning trials a day), a test day was not carried out and instead only the learning rate was measured. […] Finally, during week 4, all the mice underwent DFC.
Since 1 month of chronic YB-537 ingestion rescued cognitive and pathological phenotypes more efficiently in female compared with male 5xFAD mice, we hypothesized that males may require a longer dosing regimen than females in order achieve a similar therapeutic effect. We therefore ran an additional experiment where we treated 5-month-old male 5xFAD mice with 50 mg/kg of YB-537 in drinking water for 4 months (starting at the age of 5 months, and ending at the age of 9 months, similar to the experiment described above), and compared cognitive performance to male 5xFAD and WT control mice of the same age not being treated with YB-537, using DFC in double-blind experiments.
DFC was done as previously described ([7]). Briefly, mice were given 2 minutes to explore the conditioning chambers, during which baseline freezing was measured. Then, a 20 second, 4 kHz, 80 dB tone was given, coterminating with the start of a 2 second, 0.5 mA foot-shock. This was repeated twice more in 1 minute intervals. Following the third and last bout, 1 minute was given before the animals were removed from the chambers. The next day, the animals were returned to the room under the same conditions and were placed back into the chambers, and freezing to the context was measured over the course of 5 minutes. The next day, the mice were brought to unfamiliar conditioning rooms and chambers. In this unfamiliar context, the protocol from the first day was repeated, except without the foot shocks. Freezing for the cue was recorded, starting from the sounding of the first tone. All measurements were taken with a Sentec stc-tb33usb-at camera, and analysis was done with Freeze Frame software (Actimetrics). […]
only, and kept there for 2 min. They were then placed inside a Habitest Operant Cage, within a Habitest Isolation Cubicle (Coulbourn), on a modular shock floor made of 16 m et al grids, connected to Precision Animal Shockers (Coulbourn) with illumination inside the cage coming from a 20 W bulb. Themice were given 2 min to explore, during which baseline freezing was measured. Then, a 20 s, 4 kHz, 80 dB tone was given, co- terminating with the start of a 2 s, 0.5 mA foot-shock, which was repeated a further two times, each having 1 min interval. Following the third, and last of these bouts, 1 min was given prior to the animals being removed from the chambers. […]

5xFAD mice [2] = assay: Nesting in 5xFAD mice; format: in vivo, mouse; design: key to Sup. Fig. 5-2J, nesting: nesting score on a scale of 1 to 5
Description: Each home cage was given six identical portions of cotton wool tubes and 24 h later the nest made was photographed from above. The images were gi ven the names of the respective cages, whi ch were coded […]
(see ‘Blinding Measures for Animal Experiments’ section), and were analyzed by an experimenter that was blind to the conditions, groups and cage codes. […]
Analysis of the images was done blind, by an experimenter unaware of the experimental conditions or details, using Imaris (Bitplane) software. Surface reconstruction module was used to extract the data as volumes and / or si gnal intensities of the used markers (4-HNE, phospho- t au, amyloid β and Iba 1) .

With `Cc1ccc(-c2cn3cccc(C)c3n2)cc1S(=O)(=O)N1CCNCC1` [YB-537] the “freezing to conditioned context (individual mice)” value (“freezing to conditioned context” below) (5xFAD mice [1]; 5xFAD 1 month, both sexes) was 26.3 and 36.9 and 45.3 and 29.6 and 49.0 and 37.4 and 41.6 and 45.9 and 41.9 and 40.7 and 24.2 and 16.0 and 23.6 and 22.5 and 44.6 and 33.3, the “freezing to conditioned cue (individual mice)” value (“freezing to conditioned cue” below) (5xFAD mice [1]; 5xFAD 1 month, both sexes) was 15.0 and 17.0 and 24.7 and 22.5 and 22.1 and 14.0 and 31.4 and 12.7 and 18.5 and 20.4 and 8.8 and 16.5 and 7.1 and 13.0 and 5.4 and 14.5 and the “freezing to conditioned context” value (5xFAD mice [1]; 5xFAD 1 month, females) was 26.3 and 36.9 and 16.0 and 23.6 and 22.5 and 44.6 and 33.3. For the same compound, the “freezing to conditioned cue” value (5xFAD mice [1]; 5xFAD 1 month, females) was 15.0 and 17.0 and 16.5 and 7.1 and 13.0 and 5.4 and 14.5, the “freezing to conditioned context” value (5xFAD mice [1]; 5xFAD 1 month, males) was 45.9 and 41.9 and 40.7 and 24.2 and 45.3 and 29.6 and 49.0 and 37.4 and 41.6 and the “freezing to conditioned cue” value (5xFAD mice [1]; 5xFAD 1 month, males) was 12.7 and 18.5 and 20.4 and 8.8 and 24.7 and 22.5 and 22.1 and 14.0 and 31.4. For the same compound, the “Figure 8A, delay fear conditioning” value (5xFAD mice [1]; Baseline) was 11.3 and 26.4 and 19.1 and 15.1 and 10.9 and 6.4 and 3.1 and 7.6 and 8.2, the “Figure 8A, delay fear conditioning” value (5xFAD mice [1]; CS/US 1) was 31.6 and 45.2 and 36.2 and 37.7 and 37.5 and 20.1 and 19.4 and 47.6 and 48.9 and the “Figure 8A, delay fear conditioning” value (5xFAD mice [1]; CS/US 2) was 48.3 and 58.0 and 52.7 and 47.1 and 45.6 and 18.2 and 23.2 and 57.0 and 60.3. For the same compound, the “Figure 8A, delay fear conditioning” value (5xFAD mice [1]; CS/US 3) was 62.5 and 61.5 and 55.2 and 55.7 and 52.0 and 17.2 and 31.2 and 65.3 and 57.9, the “learning during delay-fear conditioning” value (5xFAD mice [1]; male 5xFAD, 50 mg/kg in drinking water 4 months) was “normal learning” and the “freezing to conditioned context” value (5xFAD mice [1]; male 5xFAD, 4 months) was 24.6 and 26.8 and 50.3 and 22.2 and 32.3 and 63.4 and 63.3 and 75.1 and 38.8. The “freezing to conditioned cue” value (5xFAD mice [1]; male 5xFAD, 4 months) was 44.3 and 66.5 and 54.4 and 28.0 and 38.6 and 64.3 and 47.4 and 65.9 and 58.0, the “learning during delay fear conditioning” value (5xFAD mice [1]; male and female 5xFAD, 1 month in drinking water) was “no difference observed across groups” and the Nest quality (5xFAD mice [2]; 5xFAD 1 month, regardless of sex (Pearson r)) was “significantly correlated to time under treatment”. For the same compound, the “Sup. Fig. 5-2J, nesting” value (5xFAD mice [2]; Females, Day 0) was 2 and 3, the “Sup. Fig. 5-2J, nesting” value (5xFAD mice [2]; Females, Day 7) was 3 and 4 and the “Sup. Fig. 5-2J, nesting” value (5xFAD mice [2]; Females, Day 14) was 4. For the same compound, the “Sup. Fig. 5-2J, nesting” value (5xFAD mice [2]; Females, Day 21) was 5 and 4, the “Sup. Fig. 5-2J, nesting” value (5xFAD mice [2]; Males + Females, Day 0) was 3 and 2 and the “Sup. Fig. 5-2J, nesting” value (5xFAD mice [2]; Males + Females, Day 7) was 4 and 3. For the same compound, the “Sup. Fig. 5-2J, nesting” value (5xFAD mice [2]; Males + Females, Day 14) was 4 and 3, the “Sup. Fig. 5-2J, nesting” value (5xFAD mice [2]; Males + Females, Day 21) was 5 and 4 and the “Sup. Fig. 5-2J, nesting” value (5xFAD mice [2]; Males, Day 0) was 2 and 3. The “Sup. Fig. 5-2J, nesting” value (5xFAD mice [2]; Males, Day 7) was 3 and 4, the “Sup. Fig. 5-2J, nesting” value (5xFAD mice [2]; Males, Day 14) was 4 and 3 and the “Sup. Fig. 5-2J, nesting” value (5xFAD mice [2]; Males, Day 21) was 4 and 5.
